Test systems include IGROV1 ovarian; BT-549 breast; SF-539 CNS; 786-0 renal; PC-3 prostate; MDA-MB-231 breast; CAKI-1 renal; K-562 leukemia; HCC-2998 colon; HCT-15 colon; SF-268 CNS; MCF7 breast; NCI-H522 lung.
Common to all, as to test: DTP human tumour cell line panel, 48 h

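All cell lines were grown in 96-well plates and treated with compound for 48 hours. At the TGI there is no net growth.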 Bounds are passed on as bounds.

Turning to `CC1=NN(c2nc(N)nc(CN3CCOCC3)n2)C(C)(C)C1`, the TGI (in general, the concentration giving total growth inhibition) is 37.2 µM in the experiment with IGROV1 ovarian; > 100 µM in the experiment on BT-549 breast; > 100 µM with SF-539 CNS; 31.2 µM in the experiment with 786-0 renal; > 100 µM with PC-3 prostate; > 100 µM in the experiment on MDA-MB-231 breast. The TGI was 40.1 µM in the experiment on CAKI-1 renal; > 100 µM in the experiment with K-562 leukemia; > 100 µM in the experiment with HCC-2998 colon; > 100 µM with HCT-15 colon; > 100 µM in the experiment on SF-268 CNS; > 100 µM with MCF7 breast. The compound also came in with a total growth inhibition concentration (TGI) in the experiment on NCI-H522 lung of 29.1 µM.
With `C=C(Cl)C(Cl)(CBr)CCC(Br)C(C)(C)Br` (centres undefined), the TGI was 37.3 µM in the experiment with IGROV1 ovarian; 20.8 µM with BT-549 breast; 4.01 µM in the experiment on SF-539 CNS; 2.59 µM in the experiment on 786-0 renal; 5.68 µM with PC-3 prostate; 27.6 µM in the experiment with MDA-MB-231 breast. Besides, the TGI with CAKI-1 renal amounted to 5.3 µM; in the experiment with K-562 leukemia it was 16.3 µM; with HCC-2998 colon it was 19.9 µM; with HCT-15 colon, 9.35 µM; in the experiment on SF-268 CNS, 10.7 µM; in the experiment on MCF7 breast, 3.34 µM. For the same compound, the concentration for total growth inhibition (TGI) in the experiment on NCI-H522 lung amounted to 19.3 µM.
For `Cc1cc(S(=O)(=O)Nc2n[nH]c(-c3ccc(Cl)cc3)n2)c(SSc2cc(Cl)c(C)cc2S(=O)(=O)Nc2n[nH]c(-c3ccc(Cl)cc3)n2)cc1Cl`, the TGI with IGROV1 ovarian was 69.2 µM; in the experiment on BT-549 breast, > 100 µM; in the experiment with SF-539 CNS, > 100 µM; in the experiment with 786-0 renal, > 100 µM; with PC-3 prostate it was 84.6 µM; in the experiment with MDA-MB-231 breast, > 100 µM. Besides, the TGI was > 100 µM with CAKI-1 renal; 62.3 µM in the experiment with K-562 leukemia; 40.7 µM in the experiment with HCC-2998 colon; 69.1 µM in the experiment with HCT-15 colon; > 100 µM in the experiment on SF-268 CNS; > 100 µM in the experiment with MCF7 breast. For the same compound, the TGI in the experiment with NCI-H522 lung came out at 83.9 µM.
In the case of `Cc1ccc2c(=O)cc(-c3sccc3C)[nH]c2n1`, the TGI is > 96 µM in the experiment on IGROV1 ovarian; > 100 µM in the experiment with BT-549 breast; 1.79 µM in the experiment on SF-539 CNS; > 67.8 µM with 786-0 renal; > 28 µM in the experiment on PC-3 prostate; > 43.4 µM with MDA-MB-231 breast. Also, the TGI is > 100 µM in the experiment on CAKI-1 renal; > 100 µM in the experiment with K-562 leukemia; 7.13 µM with HCC-2998 colon; > 40.6 µM in the experiment with HCT-15 colon; > 56.4 µM in the experiment on SF-268 CNS; > 57.7 µM in the experiment on MCF7 breast.
As for `N#C/C(=C\c1ccc(F)cc1)c1nc(-c2cc3ccccc3oc2=O)cs1`, the TGI is 85 µM in the experiment with IGROV1 ovarian; 24.8 µM with BT-549 breast; 65.9 µM in the experiment with SF-539 CNS; 37.1 µM in the experiment with 786-0 renal; > 100 µM in the experiment with PC-3 prostate; 33.7 µM in the experiment with MDA-MB-231 breast. For the same compound, the TGI in the experiment with CAKI-1 renal was > 100 µM; with K-562 leukemia, > 100 µM; in the experiment with HCC-2998 colon it was > 100 µM; in the experiment with HCT-15 colon it was > 100 µM; in the experiment with SF-268 CNS, 46.2 µM; in the experiment on MCF7 breast, > 100 µM. In the experiment with NCI-H522 lung, this compound returned a TGI of 74.4 µM.
With `COc1ccc2c(c1)Cc1c(NCCN(C)C)ccc(C(=O)NCCCN(C)CCCNC(=O)c3ccc(NCCN(C)C)c4c3Nc3ccc(OC)cc3C4)c1N2`, the total growth inhibition concentration (TGI) in the experiment on IGROV1 ovarian is 3.95 µM; with BT-549 breast, 1.5 µM; in the experiment on SF-539 CNS it was 2.24 µM; in the experiment with 786-0 renal, 0.985 µM; in the experiment with PC-3 prostate, 0.838 µM; in the experiment with MDA-MB-231 breast it was 0.419 µM. Besides, the TGI in the experiment with CAKI-1 renal is 11.9 µM; in the experiment on K-562 leukemia, 3.14 µM; in the experiment on HCC-2998 colon it was 0.168 µM; in the experiment with HCT-15 colon, > 74.3 µM; in the experiment with SF-268 CNS, 0.327 µM; in the experiment on MCF7 breast it was 0.615 µM. In the experiment on NCI-H522 lung, the TGI came out at 0.0514 µM.
Regarding `CCOC(=O)c1cc(C2CCN(c3ccccc3)C2=O)c(/C(O)=C/C(C)=O)[nH]1` (centres undefined), the TGI with IGROV1 ovarian was > 100 µM; in the experiment on BT-549 breast, > 100 µM; in the experiment with SF-539 CNS, 31.9 µM; in the experiment with 786-0 renal, > 100 µM; in the experiment with PC-3 prostate, > 100 µM; in the experiment with MDA-MB-231 breast it was > 100 µM. The TGI in the experiment with CAKI-1 renal, in the experiment with K-562 leukemia, in the experiment with HCC-2998 colon, in the experiment with HCT-15 colon, in the experiment with SF-268 CNS and in the experiment on MCF7 breast was > 100 µM each time. Also, the concentration for total growth inhibition (TGI) in the experiment with NCI-H522 lung is > 100 µM.
Take `Cc1cc(NC2=CC(=O)C(=O)c3ccccc32)no1`: the TGI was 21.8 µM in the experiment on IGROV1 ovarian; 13.4 µM in the experiment with BT-549 breast; 13.4 µM in the experiment on SF-539 CNS; 30.4 µM in the experiment with 786-0 renal; 53.9 µM in the experiment with PC-3 prostate; > 67.2 µM in the experiment on MDA-MB-231 breast. In addition, the TGI in the experiment with CAKI-1 renal was 17.1 µM; in the experiment with K-562 leukemia, 20.1 µM; with HCC-2998 colon it was 35.2 µM; in the experiment on HCT-15 colon it was 19 µM; in the experiment on SF-268 CNS, 31.2 µM; in the experiment on MCF7 breast it was 7.66 µM. Besides, in the experiment on NCI-H522 lung, the concentration for total growth inhibition (TGI) was determined as 34.5 µM.
As for `N#CC(c1ccccc1)N(CCCCCCN(C(=O)c1ccccc1)C(C#N)c1ccccc1)C(=O)c1ccccc1` (centres undefined), the TGI in the experiment on IGROV1 ovarian, with BT-549 breast, with SF-539 CNS, in the experiment with 786-0 renal, in the experiment with PC-3 prostate and in the experiment with MDA-MB-231 breast was > 100 µM throughout. Moreover, the TGI was > 100 µM with CAKI-1 renal; > 100 µM with K-562 leukemia; 48.1 µM with HCC-2998 colon; > 100 µM in the experiment with HCT-15 colon; > 100 µM with SF-268 CNS; > 100 µM in the experiment on MCF7 breast.
`CC(=O)OC[C@H]1CN(OC(C)=O)C[C@@H](n2cc(C)c(=O)[nH]c2=O)O1`: the TGI in the experiment on IGROV1 ovarian, with BT-549 breast, in the experiment on SF-539 CNS, in the experiment on 786-0 renal, in the experiment on PC-3 prostate and in the experiment on MDA-MB-231 breast was > 100 µM in each case. Further, the TGI in the experiment on CAKI-1 renal, in the experiment on K-562 leukemia, in the experiment on HCC-2998 colon, in the experiment on HCT-15 colon, in the experiment with SF-268 CNS and in the experiment with MCF7 breast was > 100 µM in each case.
With `COc1cc2c(cc1OC)OC(c1c(OC)ccc(OC)c1O)CC2` (centres undefined), the TGI in the experiment on IGROV1 ovarian, with BT-549 breast, in the experiment with SF-539 CNS, in the experiment on 786-0 renal, in the experiment with PC-3 prostate and in the experiment with MDA-MB-231 breast was > 100 µM in each case. Also, the TGI with CAKI-1 renal, in the experiment on K-562 leukemia, in the experiment with HCC-2998 colon, with HCT-15 colon, in the experiment with SF-268 CNS and in the experiment with MCF7 breast was > 100 µM in each case.

The record behind these values is PubChem BioAssay (NCI).
